Results: patent US20110196383A1, “Atherosclerotic Plaque Dissolution Composition” (Atherolysis Medical, Inc, priority 2009, published 2011)
“Also recorded” adds a separate entry of the source.

System: atherosclerotic plaque of an atherosclerotic cadaveric superficial femoral artery
Assay: ex vivo dissolution of atherosclerotic plaque in cadaveric superficial femoral artery
Design: species or system human
Conditions: for dissolution of atherosclerotic plaque: exposure about ten minutes to about thirty minutes
[1] = about 20% by weight, about 80% base composition such as normal saline
[2] = about 98% by weight in the chemical composition, about 2% base composition
[3] = about 2.5% by weight, about 97% base composition
[4] = about 90% by weight, about 10% base composition
[5] = about 99.9% by weight in the chemical composition, about 0.1% base composition

OCC(O)CO [glycerine]
dissolution of atherosclerotic plaque (about 100% by weight in the chemical composition): showed effectiveness in dissolving atherosclerotic plaque; also recorded: dissolution of atherosclerotic plaque was noted

O=C1[C@H](CC[C@H](O)c2ccc(F)cc2)[C@@H](c2ccc(O)cc2)N1c1ccc(F)cc1 [ezetimibe, reference compound]
dissolution of atherosclerotic plaque [1]: dissolution of atherosclerotic plaque was noted

ClCCl [dichloromethane]
dissolution of atherosclerotic plaque (about 92% by weight, about 8% base composition): showed effectiveness in dissolving atherosclerotic plaque | dissolution of atherosclerotic plaque (about 99.1% by weight, about 0.9% base composition): dissolution of atherosclerotic plaque was noted

2-octane [Example 2-octane]
dissolution of atherosclerotic plaque [2]: showed effectiveness in dissolving atherosclerotic plaque; also recorded: dissolution of atherosclerotic plaque was noted

O=C(O)[C@H](O)[C@@H](O)[C@H](O)[C@H](O)CO [gluconic acid]
dissolution of atherosclerotic plaque (about 80% by weight, about 20% base composition): dissolution of atherosclerotic plaque was noted

Oc1ccc(/C=C/c2cc(O)cc(O)c2)cc1 [trans-resveratrol]
dissolution of atherosclerotic plaque [3]: dissolution of atherosclerotic plaque was noted

C=C(C)[C@H]1CC=C(C)CC1 [d-limonene]
dissolution of atherosclerotic plaque [2]: showed effectiveness in dissolving atherosclerotic plaque; also recorded: dissolution of atherosclerotic plaque was noted

S=C=S [carbon disulfide]
dissolution of atherosclerotic plaque [4]: showed effectiveness in dissolving atherosclerotic plaque; also recorded: dissolution of atherosclerotic plaque was noted

CC(C)c1nc(N(C)S(C)(=O)=O)nc(-c2ccc(F)cc2)c1/C=C/[C@@H](O)C[C@@H](O)CC(=O)O [rosuvastatin, reference compound]
dissolution of atherosclerotic plaque [1]: dissolution of atherosclerotic plaque was noted

CCCCCCCCCCCC[N+](C)(C)CC(O)CS(=O)(=O)[O-] (centres unmarked) [lauryldimethyl hydroxysultaine]
dissolution of atherosclerotic plaque [4]: dissolution of atherosclerotic plaque was noted

CC(O)C(=O)O (centres unmarked) [lactic acid]
dissolution of atherosclerotic plaque [2]: dissolution of atherosclerotic plaque was noted

CC(=O)O [acetic acid]
dissolution of atherosclerotic plaque (about 50% by weight, about 50% base composition): dissolution of atherosclerotic plaque was noted

CC(=O)Oc1ccccc1C(=O)O [acetylsalicylic acid, reference compound]
dissolution of atherosclerotic plaque (about 12% by weight in the chemical composition, about 88% base composition): showed effectiveness in dissolving atherosclerotic plaque; also recorded: dissolution of atherosclerotic plaque was noted

CCCCCCCC(=O)O [octanoic acid]
dissolution of atherosclerotic plaque [2]: showed effectiveness in dissolving atherosclerotic plaque; also recorded: dissolution of atherosclerotic plaque was noted

Oc1ccc(/C=C/c2cc(O)cc(O)c2)cc1 [resveratrol, 3,5,4′-trihydroxy-trans-stilbene]
effectiveness in dissolving atherosclerotic plaque (dissolved in water or an organic solvent in a concentration of about 0.1% to about 99.9%): showed effectiveness in dissolving atherosclerotic plaque

CCO [ethanol]
dissolution of atherosclerotic plaque (about 94% by weight, about 6% base composition): dissolution of atherosclerotic plaque was noted | effectiveness in dissolving atherosclerotic plaque (concentration of about 94% to about 96%): showed effectiveness in dissolving atherosclerotic plaque

CC(O)CO (centres unmarked) [propylene glycol]
dissolution of atherosclerotic plaque [5]: showed effectiveness in dissolving atherosclerotic plaque; also recorded: dissolution of atherosclerotic plaque was noted

Oc1ccc(/C=C\c2cc(O)cc(O)c2)cc1 [cis-resveratrol]
dissolution of atherosclerotic plaque [3]: dissolution of atherosclerotic plaque was noted

CO [methanol]
dissolution of atherosclerotic plaque [5]: showed effectiveness in dissolving atherosclerotic plaque; also recorded: dissolution of atherosclerotic plaque was noted

ClC(Cl)Cl [chloroform]
dissolution of atherosclerotic plaque (about 95% by weight, about 5% base composition): showed effectiveness in dissolving atherosclerotic plaque; also recorded: dissolution of atherosclerotic plaque was noted

Cc1ccccc1 [toluene]
dissolution of atherosclerotic plaque (about 40% by weight, about 60% base composition): showed effectiveness in dissolving atherosclerotic plaque; also recorded: dissolution of atherosclerotic plaque was noted
